Experimental data taken from patent US8980866B2, “Complex obtained from hyaluronic acid or a salt thereof and chondroitin sulphate mixtures” (Quimera Ingenieria Biomedica, S.L., priority 2011, dated 2015).

Assay: Apparent viscosity by rheometry (HAAKE RheoStress RS300, stress controlled mode, Cross model)
Type: physicochemical
Conditions: for Viscosity, γ = 1: shear rate 1 s^−1, 25° C.; for Viscosity, γ = 1 / Viscosity, γ = 10 / Viscosity, γ = 100 / Viscosity, γ = 200: Milli-Q water, concentration per Table 3; for Viscosity, γ = 10: shear rate 10 s^−1, 25° C.; for Viscosity, γ = 100: shear rate 100 s^−1, 25° C.; for Viscosity, γ = 200: shear rate 200 s^−1, 25° C.
Method: Aqueous solutions of HA:CS mixtures (control) and atomized complexes at different weight ratios of sodium hyaluronate and chondroitin sulphate were prepared for rheological characterization. Their rheological profile was determined using a HAAKE RheoStress RS300 rheometer in stress controlled mode. A 1° cone and 35 mm diameter plate was used.
Controls and 1:1 and 1:10 complexes were reconstituted in Milli-Q water.
Based on an applied shear stress, viscosity of the samples was measured at 25° C. All samples fitted in a Cross model, which allowed to compare the results obtained.

Row | Viscosity, γ = 1 [mPa · s] | Viscosity, γ = 10 [mPa · s] | Viscosity, γ = 100 [mPa · s] | Viscosity, γ = 200 [mPa · s] | Viscosity loss, γ = 1 (shear rate 1 s^−1, difference in viscosity of a sample with respect its control) [%] | Viscosity loss, γ = 10 (shear rate 10 s^−1, difference in viscosity of a sample with respect its control) [%] | Viscosity loss, γ = 100 (shear rate 100 s^−1, difference in viscosity of a sample with respect its control) [%] | Viscosity loss, γ = 200 (shear rate 200 s^−1, difference in viscosity of a sample with respect its control) [%] | Substance
1 | 4884.3 | 2307.0 | 578.0 | 375.0 | – | – | – | – | sodium hyaluronate [Sample 1]
2 | 3378.5 | 1924.5 | 522.0 | 326.5 | 30.8 | 16.5 | 9.6 | 12.9 | sodium hyaluronate [Sample 2]
